Assay results: patent US8133491B1, “Compositions and methods for treatment of hyperplastic disorders” (priority 2009, dated 2012)

Columns and labels:
prostate [1] = experiment: Histology (hematoxylin and eosin) of injected rat prostates; parameters: species or system Sprague-Dawley rats; settings: in vivo
Description: (§1) Rats were anesthetized with isoflurane gas. The hair was shaved and the incision region was scrubbed with Betadine. A lower abdominal midline incision was made providing exposure to the bladder and prostate. 0.1 mL of toxin or saline was injected into each right and left ventral lobe using a 30-gauge needle. The abdominal wall and skin were then closed in two layers. After 2 weeks the animals were sacrificed by an overdose of sodium Pentobarbital (200 mg/kg i.p.) The prostates were removed en bloc along with the bladder and urethra. The prostates were then carefully dissected from the bladder neck and urethra, weighed and fixed in 10% phosphate buffered formalin.
The fixed prostates were embedded in paraffin and sectioned at a thickness of 4 microns. Sections were stained with hematoxylin and eosin and analyzed for morphology. […] Under 400× magnification, four random areas of the ventral prostate from each animal were examined and the total numbers of stained and unstained cells were counted in the entire field. […] The mean number of stained and unstained cells was determined for each animal.

[2] = Body weight and complications after intraprostatic injection; parameters: species or system Sprague-Dawley rats; settings: rat, in vivo
Text: Eighteen adult male Sprague-Dawley rats (420-560 g) were used in this study. The animals were housed in the animal care center under controlled lighting conditions (lights on 6 AM-6 PM), with food and water always available. The animals were monitored for behavior, food and water intake, and weight. Subsequent experiments were approved by the University of Toledo's Institutional Animal Care and Use Committee.
as §1

ventral prostate [3] = experiment: PCNA stain for cellular proliferation in prostate sections; parameters: species or system Sprague-Dawley rats; settings: rat, in vivo
Description: (§2) The fixed prostates were embedded in paraffin and sectioned at a thickness of 4 microns. Sections were stained with hematoxylin and eosin and analyzed for morphology. Immunohistochemical analysis was performed on prostate sections for evidence of apoptosis with TUNEL stain (terminal deoxynucleotidyl-mediated deoxyuridine triphosphate nick end labeling) using a commercially available kit (GenScript Corporation, Piscataway, N.J.), and for cellular proliferation with PCNA stain (proliferating cell nuclear antigen) using a commercially available kit (Invitrogen Corporation, Camarillo, Calif.). A stained slide from each animal was randomly assigned a number in a blind fashion. Under 400× magnification, four random areas of the ventral prostate from each animal were examined and the total numbers of stained and unstained cells were counted in the entire field. This was done for both TUNEL and PCNA stained slides for each animal. The mean number of stained and unstained cells was determined for each animal.

ventral prostate [4] = experiment: TUNEL stain for apoptosis in prostate sections; parameters: species or system Sprague-Dawley rats; settings: rat, in vivo
Description: as §2

prostate [5] = experiment: Intraprostatic injection in rats: prostate weight / size; parameters: species or system Sprague-Dawley rats; settings: rat, in vivo
prostate [6] = settings: rat, in vivo; cited from earlier work

In the case of Botulinum toxin type A [BTA], the “histology of prostate (in words)” value (prostate [1]) was “prostatic atrophy of the glandular component with flattening of the epithelial lining”, the “2 wks Post-Injection Wt (grams) Mean” value [2] was 449 grams and the “Change in Body Weight Mean” value [2] was −51.667. For the same substance, the “Pre-Injection Wt (grams) Mean” value [2] was 501 grams, the “body weight (in words)” value [2] was “significant loss in body weight” and the “PCNA Assay # of Proliferating Cells Mean” value (ventral prostate [3]) was 26.2. For the same substance, the “cellular proliferation, PCNA staining (in words)” value (ventral prostate [3]) was “significant increase in cellular proliferation”, the “TUNEL Assay # of Apoptotic Cells Mean” value (ventral prostate [4]) was 211.1 and the “number of apoptotic cells, TUNEL staining (in words)” value (ventral prostate [4]) was “significant increase in the number of apoptotic cells”. The “Prostate Wt (grams) Mean” value (prostate [5]) was 2.627 grams, the “Prostate Wt /100 g Body Wt Mean” value (prostate [5]) was 0.586 and the “prostate size / weight (in words)” value (prostate [5]) was “did not show a statistically significant decrease in prostatic weight”. For the same substance, the “prostatic weight (Doggweiler et al.)” value (prostate [6]) was “decrease in prostatic weight”.
